Laboratory results: publication PMC3834219 (Plant molecular biology, 2013)

Target: T1, GmPP2C1 (Glycine max, UniProt K7LYY2)
T1 sequence (K7LYY2 1-536): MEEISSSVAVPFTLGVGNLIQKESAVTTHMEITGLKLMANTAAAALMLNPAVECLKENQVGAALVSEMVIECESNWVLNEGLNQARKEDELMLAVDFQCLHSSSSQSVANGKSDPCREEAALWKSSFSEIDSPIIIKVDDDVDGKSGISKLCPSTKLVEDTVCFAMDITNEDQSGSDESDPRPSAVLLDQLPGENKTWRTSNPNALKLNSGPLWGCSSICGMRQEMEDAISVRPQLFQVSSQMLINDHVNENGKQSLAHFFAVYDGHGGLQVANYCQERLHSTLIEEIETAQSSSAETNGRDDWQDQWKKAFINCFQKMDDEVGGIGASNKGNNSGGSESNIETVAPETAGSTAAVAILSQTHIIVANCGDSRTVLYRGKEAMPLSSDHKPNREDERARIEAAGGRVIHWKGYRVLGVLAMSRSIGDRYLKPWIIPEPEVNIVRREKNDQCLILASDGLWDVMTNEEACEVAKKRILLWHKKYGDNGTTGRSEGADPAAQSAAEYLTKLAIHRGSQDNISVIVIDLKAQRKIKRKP
Assay: pNPP hydrolysis at […] nm
Format: biochemical
Conditions: 1 μM His-GmPP2C1, 50 mM pNPP, pH 7.5, 25 mM Mg(OAc)2, 2 mM MnCl2

O=[N+]([O-])c1ccc(OP(=O)(O)O)cc1 [p-nitrophenyl phosphate]
pNPP hydrolysis at 405 nm: GmPP2C1 phosphatase activity was measured using the colorimetric substrate p-nitrophenyl phosphate (pNPP, Sigma)
